In PubChem BioAssay AID1963863 (Molecular Pharmacology Branch, DTP, NCI, 2024):

Tested on: 931267-113-T-J1-PDC KRAS spheroid with HUVEC/MSC, viability
Assay: Anticancer human tumor 931267-113-T-J1-PDC patient-derived colon adenocarcinoma cell line growth inhibition [KRAS2]
Conditions: for IC50: curve of first compound; for viability, T/C: stronger effect = lower value; active = viability on the fitted dose curve at most 10% of control; inactive = the rest
Method in brief: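 KRAS-mutant tumor cells were grown as spheroids with HUVEC endothelial cells and human MSCs as stroma. Targeted agents were tested alone and with KRAS pathway inhibitors. Doses started at or near clinical Cmax, or 10 microM, descending half-log.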
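Also: compound exposure lasted 7 days before the readout.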
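For viability, T/C in this document: 100% = DMSO vehicle control viability.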

COc1cc2nccc(Oc3ccc(NC(=O)C4(C(=O)Nc5ccc(F)cc5)CC4)cc3)c2cc1OC + CNCc1ccccc1-c1csc(C(C)Nc2nc(C)nc3cc(OC)c(OC)cc23)c1
3210 nM: IC50 (second compound 0.1 µM)
1770 nM: IC50 (second compound 0.316 µM)
inactive: viability, T/C (second compound 0.1 µM, first compound 0.0316 µM) 86.3% | viability, T/C (second compound 0.1 µM, first compound 0.1 µM) 93.1% | viability, T/C (second compound 0.1 µM, first compound 0.316 µM) 107% | viability, T/C (second compound 0.1 µM, first compound 1 µM) 91% | viability, T/C (second compound 0.1 µM, first compound 3.16 µM) 50.1% | viability, T/C (second compound 0.1 µM, first compound 10 µM) 48.1% | viability, T/C (second compound 0.316 µM, first compound 0.0316 µM) 85.5% | viability, T/C (second compound 0.316 µM, first compound 0.1 µM) 86.8% | viability, T/C (second compound 0.316 µM, first compound 0.316 µM) 81.9% | viability, T/C (second compound 0.316 µM, first compound 1 µM) 72.3% | viability, T/C (second compound 0.316 µM, first compound 3.16 µM) 27.2% | viability, T/C (second compound 0.316 µM, first compound 10 µM) 21.9% | viability, T/C (second compound 1 µM, first compound 0.0316 µM) 45.3% | viability, T/C (second compound 1 µM, first compound 0.1 µM) 52.9% | viability, T/C (second compound 1 µM, first compound 0.316 µM) 39.5% | viability, T/C (second compound 1 µM, first compound 1 µM) 25.4%
< 31.6 nM: IC50 (second compound 1 µM) | IC50 (second compound 3.16 µM) | IC50 (second compound 10 µM)
active: viability, T/C (second compound 1 µM, first compound 3.16 µM) 0.22% | viability, T/C (second compound 1 µM, first compound 10 µM) 1.76% | viability, T/C (second compound 3.16 µM, first compound 0.0316 µM) 0.08% | viability, T/C (second compound 3.16 µM, first compound 0.1 µM) 0.19% | viability, T/C (second compound 3.16 µM, first compound 0.316 µM) 0.35% | viability, T/C (second compound 3.16 µM, first compound 1 µM) 0.07% | viability, T/C (second compound 3.16 µM, first compound 3.16 µM) 0.04% | viability, T/C (second compound 3.16 µM, first compound 10 µM) 0.2% | viability, T/C (second compound 10 µM, first compound 0.0316 µM) 0.14% | viability, T/C (second compound 10 µM, first compound 0.1 µM) 0.17% | viability, T/C (second compound 10 µM, first compound 0.316 µM) 0.13% | viability, T/C (second compound 10 µM, first compound 1 µM) 0.12% | viability, T/C (second compound 10 µM, first compound 3.16 µM) 0.13% | viability, T/C (second compound 10 µM, first compound 10 µM) 0.21%
